Reference: US8975234B2, “Anti-bacterial infection, inflammation, and leukemia composition and use thereof” (priority 2011, dated 2015)

System: K-562 cells
Assay: DNA ladder test
Format: cell-based, human
Settings: 48 hours, different concentrations
Protocol: K-562 cells treated with Tellimagrandin II were collected for electrophoresis to identify any DNA fragmentation.
A total of 3 mL cell solution at the concentration of 1×10^6 K-562 cells per mL was cultured with 6 cm cell culture plates in an incubator supplied with 5% CO2 at 37° C. for 30 minutes so that cells could adapt to the environment. Tellimagrandin II solutions of different concentrations were added by order so that the final concentrations are 0, 20, 30, 40, 50 and 60 μM respectively. The solution was placed in incubator with 5% CO2 at 37° C. for 48 hours before being centrifuged at 2,500 rpm at 4° C. for 5 minutes. After removing the supernatant, it's rinsed by PBS once. Then, cell lysis buffer 100 μL (1% NP-40 dissolved in […], pH 8.0) was added and the solution was shaken at high speed for 10 seconds.
The solution was centrifuged at 3,500 rpm for 5 minutes before 90 μL supernatant was collected and mixed properly with SDS solution 10 μL. RNase A (4 mg/mL) 50 μL was added into the mixed solution then placed in water bath at 56° C. for one hour to remove RNA. Proteinase K (10 mg/mL) 30 μL was then added before another one hour in the water bath at 56° C. to remove protein. […]

## O=C(OC1O[C@@H]2COC(=O)c3cc(O)c(O)c(O)c3-c3c(cc(O)c(O)c3O)C(=O)O[C@H]2[C@H](OC(=O)c2cc(O)c(O)c(O)c2)[C@H]1OC(=O)c1cc(O)c(O)c(O)c1)c1cc(O)c(O)c(O)c1 (stereo partly shown) [Tellimagrandin II]
  DNA fragmentation, DNA ladder electrophoresis: DNA fragmentation occurred
